Earlier results, collected in US9961900B2, “Herbicide formulations” (priority 2012, dated 2018).
Read-outs that look alike come from different tables or passages of the source. Each block holds one compound with its values, some of them ahead of it.

Experiments:
[1] = for Aqueous hydrolysis: at pH 7 and 20° C.
[2] = not given; remark: listed apart in the source
[3] = not given; remark: listed apart in the source

Structure (SMILES): COC(=O)c1ccccc1S(=O)(=O)NC(=O)Nc1nc(C)nc(OC)n1 [metsulfuron-methyl]
Aqueous hydrolysis (DT50) ([1]; at pH 5): 2 days | Aqueous hydrolysis (DT50) ([1]; at pH 7): Stable | Photolytic stability DT50 (pH 7): Stable

Structure (SMILES): C[C@@H](Oc1ccc(Oc2ncc(C(F)(F)F)cc2Cl)cc1)C(=O)O [haloxyfop-P, (R)-2-{4-[3-chloro-5-(trifluoromethyl)-2-pyridyloxy]phenoxy}propionic acid]
Aqueous photolysis DT50 (pH 7): Aqueous photolysis DT50 at pH 7: 12 days

Structure (SMILES): CC(Oc1ccc(Oc2ccc(Cl)cc2Cl)cc1)C(=O)O (racemic) [diclofop, (RS)-2-[4-(2,4-dichlorophenoxy)phenoxy]propionic acid]
log P (octanol-water) ([2]; pH 5): log P = 2.81 | log P (octanol-water) ([2]; pH 7): log P = 1.61

Structure (SMILES): CC(C)=NOCCOC(=O)[C@@H](C)Oc1ccc(Oc2cnc3cc(Cl)ccc3n2)cc1 [propaquizafop, 2-isopropylideneaminooxyethyl (R)-2-[4-(6-chloroquinoxalin-2-yloxy)phenoxy]propionate]
Hydrolytic DT50 ([1]; pH 5, 25° C.): 10.5 days | Hydrolytic DT50 ([1]; pH 7, 25° C.): 32.0 days | Hydrolytic DT50 ([1]; pH 9, 25° C.): 0.538 days

Solubility in water ([3]; pH 6.5): Water: 1 mg/L at pH 6.5 | log P (octanol-water) ([2]; 20° C.): log P = 4.5
Structure (SMILES): CCCCOC(=O)C(C)Oc1ccc(Oc2ccc(C(F)(F)F)cn2)cc1 (racemic) [fluazifop-butyl, butyl (RS)-2-{4-[5-(trifluoromethyl)-2-pyridyloxy]phenoxy}propionate]
Solubility in propylene glycol ([3]; 20° C.): dichloromethane, and xylene. Propylene glycol, 24 g/L

Structure (SMILES): CCS[C@H](C)C[C@H]1CC(=O)C(C(CC)=NOC/C=C/Cl)=C(O)C1 (racemic) [clethodim, (5RS)-2-{(1EZ)-1-[(2E)-3-chloroallyloxyimino]propyl}-5-[(2RS)-2-(ethylthio)propyl]-3-hydroxycyclohex-2-en-1-one]
Aqueous photolysis DT50 (pH 5, 25° C.): 1.6 days | Aqueous photolysis DT50 (pH 7, 25° C.): Aqueous photolysis DT50 at pH 7: 5.45 days (25° C.) | Aqueous photolysis DT50 (pH 9, 25° C.): 7.79 days

Structure (SMILES): COc1cnc(OC)n2nc(NS(=O)(=O)c3c(OCC(F)F)cccc3C(F)(F)F)nc12 [penoxsulam]
Aqueous hydrolysis [1]: Stable (at pH 7 and 20° C.) | Photolytic stability DT50 (pH 7): DT50: 2 d (at pH 7)

Structure (SMILES): C=CCO/N=C(\CCC)C1=C(O)CC(C)(C)C(C(=O)OC)C1=O (racemic) [aloxydim, methyl (1RS)-3-[(E)-1-(allyloxyimino)butyl]-4-hydroxy-6,6-dimethyl-2-oxocyclohex-3-enecarboxylate]
Aqueous photolysis DT50 (pH 7): Aqueous photolysis DT50 at pH 7: 0.22 days ^+

Structure (SMILES): CCCCOC(=O)[C@@H](C)Oc1ccc(Oc2ccc(C#N)cc2F)cc1 [cyhalofop-butyl, butyl (R)-2-[4-(4-cyano-2-fluorophenoxy)phenoxy]propionate]
log P (octanol-water) ([2]; pH 7, 20° C.): log P = 4.8 | Aqueous hydrolysis (DT50) ([1]; 20° C. and pH 7): Aqueous hydrolysis DT50 at 20 °C and pH 7: 97 days | Aqueous hydrolysis stability ([1]; pH 4, 25° C.): Stable | Hydrolysis DT50 ([1]; pH 9, 25° C.): 2 days

Behaviour in alkaline media ([1]; alkaline media): hydrolyzes | Hydrolytic DT50 ([1]; pH 7, 25° C.): 4.8 days | Hydrolytic DT50 ([1]; pH 9, 25° C.): 0.07 days | Aqueous photolysis DT50 (pH 7): Aqueous photolysis DT50 at pH 7: 24 days
Structure (SMILES): C#CCOC(=O)[C@@H](C)Oc1ccc(Oc2ncc(Cl)cc2F)cc1 [clodinafop-propargyl, prop-2-ynyl (R)-2-[4-(5-chloro-3-fluoro-2-pyridyloxy)phenoxy]propionate]

Structure (SMILES): C[C@@H](Oc1ccc(Oc2cnc3cc(Cl)ccc3n2)cc1)C(=O)OCC1CCCO1 (stereo partly shown) [quizalofop-P-tefuryl]
Aqueous hydrolysis (DT50) ([1]; 20° C. and pH 7): Aqueous hydrolysis DT50 at 20 °C and pH 7: 18.2 days | Hydrolysis DT50 ([1]; pH 5.1, 22° C.): 8.2 days | Hydrolysis DT50 ([1]; pH 9.2, 22° C.): 0.3 days | Aqueous photolysis DT50 (pH 7): Aqueous photolysis DT50 at pH 7: 1.0 days

Structure (SMILES): COc1cc(OC)n2nc(S(=O)(=O)Nc3c(Cl)ccc(C)c3Cl)nc2n1 [metosulam]
Aqueous hydrolysis [1]: Stable | Photolytic stability DT50 (pH 7): DT50: 31.1 d

Hydrolysis DT50 ([1]; pH 5, 25° C., darkness): Stable | Hydrolysis DT50 ([1]; pH 9, 25° C., darkness): 1.21 days | Aqueous photolysis DT50 (pH 7): Aqueous photolysis DT50 at pH 7: 6 days
Structure (SMILES): CCCCOC(=O)[C@@H](C)Oc1ccc(Oc2ccc(C(F)(F)F)cn2)cc1 [fluazifop-P-butyl, butyl (R)-2-{4-[5-(trifluoromethyl)-2-pyridyloxy]phenoxy}propionate]
Aqueous hydrolysis (DT50) ([1]; 20° C. and pH 7): Aqueous hydrolysis DT50 (days) at 20 °C and pH 7: 78

Structure (SMILES): COc1cc(OC)nc(NC(=O)NS(=O)(=O)c2ncccc2C(=O)N(C)C)n1 [nicosulfuron]
Aqueous hydrolysis (DT50) ([1]; at pH 5): 15 days | Aqueous hydrolysis (DT50) ([1]; at pH 7): Stable | Photolytic stability DT50 (at pH 7): DT50: 202 d

Structure (SMILES): CC(Oc1ccc(Oc2ncc(C(F)(F)F)cc2Cl)cc1)C(=O)O (racemic) [haloxyfop, (RS)-2-{4-[3-chloro-5-(trifluoromethyl)-2-pyridyloxy]phenoxy}propionic acid]
Aqueous hydrolysis (DT50) ([1]; 20° C. and pH 7): Stable | Aqueous photolysis DT50 (pH 7): Aqueous photolysis DT50 at pH 7: 12 days

Structure (SMILES): COC(=O)c1ccccc1S(=O)(=O)NC(=O)N(C)c1nc(C)nc(OC)n1 [tribenuron-methyl]
Aqueous hydrolysis (DT50) ([1]; at pH 5): 2.2 days | Aqueous hydrolysis (DT50) ([1]; at pH 7): 16 | Photolytic stability DT50 (pH 7): Stable

Structure (SMILES): Cc1ccn2nc(S(=O)(=O)Nc3c(F)cccc3F)nc2n1 [flumetsulam]
Photolytic stability DT50 (pH 7): DT50: 270 d

Solubility in cyclohexane [3]: > 40 g/kg | Solubility in ethanol [3]: > 50 mg/mL | Solubility in n-octanol [3]: > 50 mg/mL | Solubility in water [3]: Water: 0.8 mg/L
Structure (SMILES): CCOC(=O)C(C)Oc1ccc(Oc2nc3ccc(Cl)cc3s2)cc1 (racemic) [fenthiaprop-ethyl, ethyl (RS)-2-[4-(6-chloro-1,3-benzothiazol-2-yloxy)phenoxy]propionate]
Solubility in acetone [3]: In acetone, ethyl acetate, toluene, >500 g/kg; | Solubility in ethyl acetate [3]: In acetone, ethyl acetate, toluene, >500 g/kg; | Solubility in toluene [3]: In acetone, ethyl acetate, toluene, >500 g/kg;

Structure (SMILES): CCCC(=NOCC)C1=C(O)C[C@@H]([C@H]2CCCSC2)CC1=O (racemic) [cycloxydim, (5RS)-2-[(EZ)-1-(ethoxyimino)butyl]-3-hydroxy-5-[(3RS)-thian-3-yl]cyclohex-2-en-1-one]
Aqueous photolysis DT50 (pH 7): Aqueous photolysis DT50 at pH 7: 0.05 days ^+

Structure (SMILES): CCON=C(CC)C1=C(O)CC(c2c(C)cc(C)cc2C)CC1=O (racemic) [tralkoxydim, (RS)-2-[(EZ)-1-(ethoxyimino)propyl]-3-hydroxy-5-mesitylcyclohex-2-en-1-one]
Solubility in water ([3]; pH 5.2): 6.7 mg/L at 22 °C (pH 5.2) | Solubility in water ([3]; pH 6.5): 6.1 mg/L at 22 °C (pH 6.5) | Solubility in water ([3]; pH 9): 9820 mg/L at 22 °C (pH 9.0) | Aqueous hydrolysis (DT50) ([1]; 20° C. and pH 7): at 20 °C and pH 7: 140 days | Hydrolysis DT50 ([1]; pH 5, 25° C.): pH sensitive: DT50 9 days at pH 5, | Aqueous hydrolysis stability ([1]; pH 9): stable at pH 9, all at 25° C.^+ | Aqueous photolysis DT50 (pH 7): Aqueous photolysis DT50 at pH 7: 5.8 days 5.8 ^+

Structure (SMILES): CCCC(=NOCC)C1=C(O)C[C@@H](C[C@@H](C)SCC)CC1=O (racemic) [sethoxydim, (5RS)-2-[(EZ)-1-(ethoxyimino)butyl]-5-[(2RS)-2-(ethylthio)propyl]-3-hydroxycyclohex-2-en-1-one]
Aqueous photolysis DT50 (pH 7): Aqueous photolysis DT50 at pH 7: 0.02 days ^+

Aqueous hydrolysis [1]: Stable (“”) | Photolytic stability DT50 (pH 7): DT50: 3.2 d (“”)
Structure (SMILES): COc1cc(OC)n2nc(NS(=O)(=O)c3c(C(F)(F)F)ccnc3OC)nc2n1 [pyroxsulam]

Stability in aqueous media ([1]; pH 3): Stable at pH 3-7 ^+
Structure (SMILES): CCOC(=O)C(C)Oc1ccc(Oc2cnc3cc(Cl)ccc3n2)cc1 (racemic) [quizalofop-ethyl, ethyl (2RS)-2-[4-(6-chloroquinoxalin-2-yloxy)phenoxy]propionate]

Structure (SMILES): COc1nc(C)nc(NC(=O)NS(=O)(=O)c2ccccc2Cl)n1 [chlorsulfuron]
Aqueous hydrolysis (DT50) ([1]; at pH 5): 1 days | Aqueous hydrolysis (DT50) ([1]; at pH 7): Stable | Photolytic stability DT50 (pH 7): DT50: 18.8 d
